Source: patent US11498899B2, “Nitrone herbicides” (FMC Corporation, priority 2016, dated 2022)

Columns and labels:
rice (Oryza sativa) = experiment: Test B flooded paddy test, visual rating 0-100 (0 no effect, 100 complete control); settings: Flood, 250 g ai/ha, applied to paddy water, rated after 13 to 15 days
[1] = system: foxtail, giant (giant foxtail, Setaria faberii); experiment: Test A preemergence, visual injury rating 0-100; assay type: in vivo
[2] = system: pigweed (Amaranthus retroflexus); experiment: Test A preemergence, visual injury rating 0-100; assay type: in vivo
[3] = system: ragweed (common ragweed, Ambrosia elatior); experiment: Test A preemergence, visual injury rating 0-100; assay type: in vivo
kochia (Kochia scoparia) [4] = experiment: Test A preemergence, visual injury rating 0-100; assay type: in vivo
[5] = system: ryegrass, Italian (Italian ryegrass, Lolium multiflorum); experiment: Test A preemergence, visual injury rating 0-100; assay type: in vivo
[6] = system: ducksalad (Heteranthera limosa); experiment: Test B flooded paddy test, visual rating 0-100; settings: Flood, 250 g ai/ha, applied to paddy water, rated after 13 to 15 days
[7] = system: barnyardgrass (Echinochloa crus-galli); experiment: Test A preemergence, visual injury rating 0-100 (0 no effect, 100 complete control); assay type: in vivo
[8] = system: barnyardgrass (Echinochloa crus-galli); experiment: Test B flooded paddy test, visual rating 0-100; settings: Flood, 250 g ai/ha, applied to paddy water, rated after 13 to 15 days
[9] = system: foxtail, giant (giant foxtail, Setaria faberii); experiment: Test A postemergence, visual injury rating 0-100; assay type: in vivo; settings: 0 to 100 scale
[10] = system: galium (catchweed bedstraw, Galium aparine); experiment: Test A postemergence, visual injury rating 0-100; assay type: in vivo; settings: 0 to 100 scale
[11] = system: pigweed (Amaranthus retroflexus); experiment: Test A postemergence, visual injury rating 0-100; assay type: in vivo; settings: 0 to 100 scale
[12] = system: wheat (Triticum aestivum); experiment: Test A postemergence, visual injury rating 0-100; assay type: in vivo; settings: 0 to 100 scale
[13] = system: ragweed (common ragweed, Ambrosia elatior); experiment: Test A postemergence, visual injury rating 0-100; assay type: in vivo; settings: 0 to 100 scale
kochia (Kochia scoparia) [14] = experiment: Test A postemergence, visual injury rating 0-100; assay type: in vivo; settings: 0 to 100 scale
[15] = system: blackgrass (Alopecurus myosuroides); experiment: Test A postemergence, visual injury rating 0-100; assay type: in vivo; settings: 0 to 100 scale
[16] = system: ryegrass, Italian (Italian ryegrass, Lolium multiflorum); experiment: Test A postemergence, visual injury rating 0-100; assay type: in vivo; settings: 0 to 100 scale
[17] = system: barnyardgrass (Echinochloa crus-galli); experiment: Test A postemergence, visual injury rating 0-100; assay type: in vivo; settings: 0 to 100 scale
corn (Zea mays) = experiment: Test A postemergence, visual injury rating 0-100; assay type: in vivo; settings: 0 to 100 scale
[18] = 125 g ai/ha, 0 to 100 scale (0 no effect, 100 complete control), approx. 10 days

SMILES	Rice plant response rating (0 to 100 scale) (rice (Oryza sativa))	Foxtail, Giant plant response rating (0 to 100 scale) ([1]; 500 g ai/ha)	Pigweed plant response rating (0 to 100 scale) ([2]; 500 g ai/ha)	Ragweed plant response rating (0 to 100 scale) ([3]; 500 g ai/ha)	Kochia plant response rating (0 to 100 scale) (kochia (Kochia scoparia) [4]; 500 g ai/ha)	Ryegrass, Italian plant response rating (0 to 100 scale) ([5]; 500 g ai/ha)	Ducksalad plant response rating (0 to 100 scale) [6]	Barnyardgrass plant response rating (0 to 100 scale) ([7]; 500 g ai/ha)	Barnyardgrass plant response rating (0 to 100 scale) [8]	Foxtail, Giant plant response rating ([9]; 125 g ai/ha)	Foxtail, Giant plant response rating ([9]; 500 g ai/ha)	Galium plant response rating ([10]; 125 g ai/ha)	Galium plant response rating ([10]; 500 g ai/ha)	Pigweed plant response rating ([11]; 125 g ai/ha)	Pigweed plant response rating ([11]; 500 g ai/ha)	Wheat plant response rating ([12]; 125 g ai/ha)	Wheat plant response rating ([12]; 500 g ai/ha)	Ragweed plant response rating ([13]; 125 g ai/ha)	Ragweed plant response rating ([13]; 500 g ai/ha)	Kochia plant response rating (kochia (Kochia scoparia) [14]; 125 g ai/ha)	other results
CC1=[N+]([O-])C(C(=O)Nc2cccc(F)c2F)C(c2cc(C)cc(F)c2)C1 (racemic) [Compound 103]	0	100	70	90	80	90	80	90	65	80	90	0	50	0	50	20	70	40	40	0	Foxtail, Giant plant response rating (0 to 100 scale) ([1]; 125 g ai/ha): 90; Pigweed plant response rating (0 to 100 scale) ([2]; 125 g ai/ha): 30; Ragweed plant response rating (0 to 100 scale) ([3]; 125 g ai/ha): 60; Kochia plant response rating (0 to 100 scale) (kochia (Kochia scoparia) [4]; 125 g ai/ha): 10; Barnyardgrass plant response rating (0 to 100 scale) ([7]; 125 g ai/ha): 90; Kochia plant response rating (kochia (Kochia scoparia) [14]; 500 g ai/ha): 30; Blackgrass plant response rating ([15]; 125 g ai/ha): 80; Blackgrass plant response rating ([15]; 500 g ai/ha): 70; Ryegrass, Italian plant response rating ([16]; 125 g ai/ha): 50; Ryegrass, Italian plant response rating ([16]; 500 g ai/ha): 70; Barnyardgrass plant response rating ([17]; 125 g ai/ha): 80; Barnyardgrass plant response rating ([17]; 500 g ai/ha): 90; Corn plant response rating (corn (Zea mays); 125 g ai/ha): 50; Corn plant response rating (corn (Zea mays); 500 g ai/ha): 60
CC1=[N+]([O-])C(C(=O)Nc2cccc(F)c2F)C(c2cccc(Br)n2)C1 (racemic) [Compound 65]	10	90	0	0	0	100	60	90	15	0	20	0	30	0	0	0	10	0	0	0	Foxtail, Giant plant response rating (0 to 100 scale) ([1]; 125 g ai/ha): 0; Pigweed plant response rating (0 to 100 scale) ([2]; 125 g ai/ha): 0; Ragweed plant response rating (0 to 100 scale) ([3]; 125 g ai/ha): 0; Kochia plant response rating (0 to 100 scale) (kochia (Kochia scoparia) [4]; 125 g ai/ha): 0; Ryegrass, Italian plant response rating (0 to 100 scale) ([5]; 125 g ai/ha): 0; Barnyardgrass plant response rating (0 to 100 scale) ([7]; 125 g ai/ha): 0; Kochia plant response rating (kochia (Kochia scoparia) [14]; 500 g ai/ha): 0; Blackgrass plant response rating ([15]; 125 g ai/ha): 0; Blackgrass plant response rating ([15]; 500 g ai/ha): 0; Ryegrass, Italian plant response rating ([16]; 125 g ai/ha): 0; Ryegrass, Italian plant response rating ([16]; 500 g ai/ha): 0; Barnyardgrass plant response rating ([17]; 125 g ai/ha): 0; Barnyardgrass plant response rating ([17]; 500 g ai/ha): 0; Corn plant response rating (corn (Zea mays); 125 g ai/ha): 0; Corn plant response rating (corn (Zea mays); 500 g ai/ha): 0
CC1=[N+]([O-])C(C(=O)Nc2cccc(F)c2F)C(c2cc(C)cc(CF)c2)C1 (racemic) [Compound 108]	0	100	70	70	90	90	0	100	0	70	90	50	70	0	20	30	70	30	50	0	Foxtail, Giant plant response rating (0 to 100 scale) ([1]; 125 g ai/ha): 90; Pigweed plant response rating (0 to 100 scale) ([2]; 125 g ai/ha): 0; Ragweed plant response rating (0 to 100 scale) ([3]; 125 g ai/ha): 0; Kochia plant response rating (0 to 100 scale) (kochia (Kochia scoparia) [4]; 125 g ai/ha): 20; Barnyardgrass plant response rating (0 to 100 scale) ([7]; 125 g ai/ha): 90; Kochia plant response rating (kochia (Kochia scoparia) [14]; 500 g ai/ha): 20; Blackgrass plant response rating ([15]; 125 g ai/ha): 90; Blackgrass plant response rating ([15]; 500 g ai/ha): 90; Ryegrass, Italian plant response rating ([16]; 125 g ai/ha): 40; Ryegrass, Italian plant response rating ([16]; 500 g ai/ha): 70; Barnyardgrass plant response rating ([17]; 125 g ai/ha): 70; Barnyardgrass plant response rating ([17]; 500 g ai/ha): 80; Corn plant response rating (corn (Zea mays); 125 g ai/ha): 60; Corn plant response rating (corn (Zea mays); 500 g ai/ha): 90
CC1=[N+]([O-])C(C(=O)Nc2cccc(F)c2F)C(c2cccc(Cl)c2C)C1 (racemic) [Compound 117]	0	90	80	90	80	90	0	90	0	80	90	70	70	0	70	20	80	0	60	0	Foxtail, Giant plant response rating [1, 18]: 90; Pigweed plant response rating [2, 18]: 60; Ragweed plant response rating [3, 18]: 30; Kochia plant response rating (kochia (Kochia scoparia) [4]; [18]): 10; Ryegrass, Italian plant response rating [5, 18]: 60; Barnyardgrass plant response rating [7, 18]: 90; Kochia plant response rating (kochia (Kochia scoparia) [14]; 500 g ai/ha): 60; Blackgrass plant response rating ([15]; 125 g ai/ha): 60; Blackgrass plant response rating ([15]; 500 g ai/ha): 70; Ryegrass, Italian plant response rating ([16]; 125 g ai/ha): 30; Ryegrass, Italian plant response rating ([16]; 500 g ai/ha): 60; Barnyardgrass plant response rating ([17]; 125 g ai/ha): 60; Barnyardgrass plant response rating ([17]; 500 g ai/ha): 80; Corn plant response rating (corn (Zea mays); 125 g ai/ha): 30; Corn plant response rating (corn (Zea mays); 500 g ai/ha): 70
